Positions of bridges follow the written chain, without caps; N, C: chain ends. Non-standard residues stand in square brackets, D forms with d. Residues, ends and D or L forms follow the SMILES beside them. *: point of attachment. DOTA(p-xylylenediamine) = O=C(O)CN1CCN(CC(=O)O)CCN(CC(=O)NCc2ccc(CN*)cc2)CCN(CC(=O)O)CC1; X1 = O=C1OC2(c3ccc(O)cc3Oc3cc(O)ccc32)c2ccc(NC(=S)NCc3ccc(CN*)cc3)cc21; FITC = O=C1OC2(c3ccc(O)cc3Oc3cc(O)ccc32)c2ccc(NC(=S)*)cc21; DOTA = O=C(O)CN1CCN(CC(=O)O)CCN(CC(=O)*)CCN(CC(=O)O)CC1; Tyr(3-Cl) = N[C@@H](Cc1ccc(O)c(Cl)c1)C(=O)O; Hyp = O=C(O)[C@@H]1C[C@@H](O)CN1; Ahx = NCCCCCC(=O)O
Assays:
Human fibrin = target: T1, Human fibrin (Homo sapiens, UniProt P02671+P02675+P02679); test: Binding to human fibrin, dried fibrin microtiter plate, stoichiometric binding model; settings: dried human fibrin about 2.5 mg/mL, compound 0.1 to 50 μM, 2 h; read-out: Kd, first binding event
T1 construct: thrombin cleaves fibrinopeptides on fibrinogen resulting in an end-to-end polymerization to give the polymer fibrin; Human fibrinogen (American Diagnostica) was dialyzed; purchased American Diagnostica
T1 sequence (P02671 36-629 limits assumed): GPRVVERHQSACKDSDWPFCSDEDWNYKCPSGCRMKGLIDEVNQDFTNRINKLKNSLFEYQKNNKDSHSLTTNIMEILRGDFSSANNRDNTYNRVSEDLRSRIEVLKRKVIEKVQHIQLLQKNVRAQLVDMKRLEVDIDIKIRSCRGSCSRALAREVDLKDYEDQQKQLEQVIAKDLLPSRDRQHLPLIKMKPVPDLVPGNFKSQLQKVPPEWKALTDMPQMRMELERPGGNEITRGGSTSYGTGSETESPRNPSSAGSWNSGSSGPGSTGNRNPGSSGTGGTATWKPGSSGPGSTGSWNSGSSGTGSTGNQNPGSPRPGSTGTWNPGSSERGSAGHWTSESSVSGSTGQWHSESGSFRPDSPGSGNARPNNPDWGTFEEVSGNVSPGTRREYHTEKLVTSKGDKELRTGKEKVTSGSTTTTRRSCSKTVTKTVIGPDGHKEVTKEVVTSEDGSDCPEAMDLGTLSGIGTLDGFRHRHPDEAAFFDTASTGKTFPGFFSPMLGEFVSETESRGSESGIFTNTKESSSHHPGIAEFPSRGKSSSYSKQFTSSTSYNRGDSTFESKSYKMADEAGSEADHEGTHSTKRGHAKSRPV
T1 sequence (P02675 45-491 limits assumed): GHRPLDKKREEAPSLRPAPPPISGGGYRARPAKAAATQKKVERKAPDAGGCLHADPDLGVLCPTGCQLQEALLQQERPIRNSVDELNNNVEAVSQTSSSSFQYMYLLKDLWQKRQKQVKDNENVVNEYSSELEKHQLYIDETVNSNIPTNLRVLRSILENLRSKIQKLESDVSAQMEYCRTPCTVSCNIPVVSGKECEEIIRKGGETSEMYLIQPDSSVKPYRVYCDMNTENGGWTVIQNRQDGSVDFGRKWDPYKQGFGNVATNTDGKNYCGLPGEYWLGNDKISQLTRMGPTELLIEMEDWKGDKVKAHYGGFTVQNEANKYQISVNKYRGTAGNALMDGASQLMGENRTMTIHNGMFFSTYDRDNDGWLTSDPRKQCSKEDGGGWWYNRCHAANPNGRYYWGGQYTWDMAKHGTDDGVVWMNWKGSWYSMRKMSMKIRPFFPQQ
T1 sequence (P02679 27-437 isoform P02679-2 limits assumed): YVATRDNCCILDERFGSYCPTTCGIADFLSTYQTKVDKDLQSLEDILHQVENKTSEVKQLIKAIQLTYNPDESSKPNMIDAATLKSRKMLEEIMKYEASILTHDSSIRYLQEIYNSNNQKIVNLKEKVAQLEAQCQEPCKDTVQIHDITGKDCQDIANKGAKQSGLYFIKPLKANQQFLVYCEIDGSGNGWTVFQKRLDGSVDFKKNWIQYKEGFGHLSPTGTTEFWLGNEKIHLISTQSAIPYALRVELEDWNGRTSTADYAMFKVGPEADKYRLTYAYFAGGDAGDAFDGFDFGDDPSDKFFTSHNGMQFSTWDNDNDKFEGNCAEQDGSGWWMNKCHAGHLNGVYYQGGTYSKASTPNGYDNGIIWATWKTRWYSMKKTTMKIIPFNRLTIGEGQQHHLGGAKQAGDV
Description: Binding can also be assessed by a dried fibrin assay. Here, purified fibrinogen (2.5 mg/mL; 7 μM fibrin) is clotted with thrombin and dried to a thin film in wells of a microtiter plate. The resulting clots bind to the plate without loss of protein. The clots are rehydrated with buffer containing known concentrations of peptide. After incubation at 37° C. for 2 hr, the concentration of peptide in the supernatant ([peptide]free) is determined (e.g. by HPLC or if the peptide is labeled with a fluorophore by fluorescence, or if labeled by a radionuclide concentration is determined by radioactivity). The concentration of fibrin-bound peptide ([peptide]bound) is calculated by subtraction ([peptide]bound)=[peptide]total−[peptide]free). A dissociation constant (Kd) for fibrin binding can be determined by fitting a plot of [peptide]bound versus [peptide]free to either a stoichiometric (see e.g. Nair et al., Angew Chem Int Ed 2008 47:4918-21) or equivalent binding sites model (see e.g. Overoye-Chan et al. J Am Chem Soc 2008 130:6025-39). […]
Solutions of compound ranging from 0.1 to 50 μM were added to each of the wells of the dried fibrin microtiter plate, and the plate was shaken for 2 h. After incubation, solution was removed and the concentration of unbound compound was determined from its radioactivity or by ICP-MS. […]

fibrin gel [1] = test: MR phantom study at 1.5 T in fibrinogen solution and fibrin gel; settings: 25 μM Gd in 5 mg/mL fibrin gel, T1-weighted
Description: Fibrinogen (fgn) (50 mg, American Diagnostica) was dissolved in 1 mL of TBS (50 mM Tris, 150 mM sodium chloride, pH 7.4) and was dialyzed against TBS with 5 mM sodium citrate. The concentration of the resulting fibrinogen solution was 8.8 mg/mL based on the absorbance at 280 nm where 1 mg/mL fgn has an optical density of 1.512 for a 1 cm path length. Solutions were prepared by diluting stock solutions of gadolinium probe and fgn to final solutions of 25 μM Gd and 5 mg/mL fgn. Gadolinium concentrations were determined by ICP-MS. Fibrin gels were prepared by adding CaCl2 and thrombin to a final concentration of 7 mM and 4 U/mL, respectively. After briefly mixing the CaCl2 and thrombin, the solutions were allowed to gel/clot for 30 minutes. After fibrin (fbn) formation was complete, the clots were pushed to the wall of the tube with a pipet tip. A total of 6×0.5 mL phantoms were prepared in 1 mL centrifuge tubes: A) pure water; B) 5 mg/mL fibrinogen; C) [Gd(HP-DO3A)] at 25 μM in 5 mg/mL fgn; D) [Gd(HP-DO3A)] at 25 μM in 5 mg/mL fbn gel; E) GdDOTA-cyclic-FBP-p-XD-FITC (compound 17) at 25 μM in 5 mg/mL fgn; F) GdDOTA-cyclic-FBP-p-XD-FITC (compound 17) at 25 μM in 5 mg/mL fbn gel.
All 6 phantoms were simultaneously imaged at room temperature at 1.5 T with a clinical MRI. T1-weighted gradient echo images were acquired with repetition time TR=9.2 ms, echo time TE=1.9 ms, flip angle=25°.

fibrin gel [2] = target: T2, fibrin gel (Homo sapiens, UniProt P02671+P02675+P02679); test: Phantom study with fluorescence imaging in fibrinogen solution and fibrin gel; settings: 50 nM in 2 mg/mL fibrin gel
T2 construct: thrombin cleaves fibrinopeptides on fibrinogen resulting in an end-to-end polymerization to give the polymer fibrin; Fibrin is a fibrillar protein derived from the soluble plasma protein fibrinogen
T2 sequence (P02671 36-629 limits assumed): T1 sequence (P02671 36-629 limits assumed)
T2 sequence (P02675 45-491 limits assumed): T1 sequence (P02675 45-491 limits assumed)
T2 sequence (P02679 27-437 isoform P02679-2 limits assumed): T1 sequence (P02679 27-437 isoform P02679-2 limits assumed)
Description: A 10 mM solution of fluorescein was prepared in ethanol by adding 0.0113 g of fluorescein to 3 mL EtOH. This solution was diluted in water to prepare a 9.99 μM solution. Also, a dilute solution of GdDOTA-cyclic-FBP-p-XD-FITC was prepared with a final concentration of 8.55 μM. Four phantoms were prepared in 1 mL glass tubes. Each phantom contained fibrinogen at a final concentration of 2 mg/mL, 50 pmol of GdDOTA-cyclic-FBP-p-XD-FITC or fluorescein, at a total volume of 1 mL. In two of the phantoms, fibrin gels were prepared by adding CaCl2 and thrombin to a final concentration of 7 mM and 4 U/mL, respectively. Once the clots had formed, the mixture was centrifuged and the clots settled to the bottom. The 4 phantoms were labeled: A) GdDOTA-cyclic-FBP-p-XD-FITC in fgn; B) GdDOTA-cyclic-FBP-p-XD-FITC in fbn gel; C) fluorescein in fbn gel D) fluorescein in fgn. The phantoms were imaged with an IVIS Spectrum imager.

fibrin gel [3] = target: T2, fibrin gel; test: Phantom study with PET in fibrinogen solution and fibrin gel; settings: 2 mg/mL fibrin gel, 150 nCi, 2.3 nmol, 21° C.
Description: ^64CuDOTA was prepared by reacting 200 μCi of ^64CuCl2 with DOTA ligand (50 nmol) in 200 μL water at pH 6.5. The pH of the solution was maintained at 6.5 and the reaction was stirred at 50° C. for 30 min. The solution was then passed through a cation-exchange resin. The resin was washed with water and the total final volume was 600 μL.
Six phantoms were prepared in 4 mL glass culture tubes. Each phantom contained fibrinogen (fgn) at a final concentration of 2 mg/mL, 2.3 nmol of peptide or DOTA, a total volume of 2 mL, and a total activity of 150 nCi. In 3 of the phantoms, Fibrin gels (fbn) were prepared by adding CaCl2 and thrombin to a final concentration of 7 mM and 4 U/mL, respectively. Once the clots had formed, the mixture was centrifuged and the clots settled to the bottom. […]
The 6 tubes were placed in a holder with each tube equidistant from the isocenter and PET data was collected for 15 minutes. […] Each of the 32 PET detector modules consists of six 12×12 LSO crystal arrays read out by a 3×3 array of APDs (Hamamatsu 8664-55, Japan). […] The emission data recorded in list-mode format were sorted in the line of response space and compressed axially in the sinogram space for fast reconstruction. The normalization was calculated from a 64-hour scan of a plane-source rotated in the FOV. […]

## CC[C@H](C)[C@H](NC(=O)[C@H](Cc1ccc(O)cc1)NC(=O)[C@@H]1CSSC[C@H](NC(=O)[C@@H](CCC(=O)O)NC(=O)[C@H](Cc2ccc(O)cc2)NC(=O)CCCCCNC(=S)Nc2ccc3c(c2)C(=O)OC32c3ccc(O)cc3Oc3cc(O)ccc32)C(=O)N2C[C@H](O)C[C@H]2C(=O)N[C@@H](Cc2ccc(O)c(Cl)c2)C(=O)NCC(=O)N[C@@H](CC(C)C)C(=O)N1)C(=O)N[C@@H](CCC(N)=O)C(=O)NCc1ccc(CNC(=O)CN2CCN(CC(=O)O)CCN(CC(=O)O)CCN(CC(=O)O)CC2)cc1 [Compound 11, FITC-hexyl-cyclic-FBP-p-XD-DOTA-Gd] ({FITC-Ahx}-Y[dE]C[Hyp][Tyr(3-Cl)]GLCYIQ-{DOTA(p-xylylenediamine)}; disulfide 3-8)
Human fibrin
  Kd: 900 ± 300 nM

## CC[C@H](C)[C@H](NC(=O)[C@H](Cc1ccc(O)cc1)NC(=O)[C@@H]1CSSC[C@H](NC(=O)[C@@H](CCC(=O)O)NC(=O)[C@H](Cc2ccc(O)cc2)NC(=O)CN2CCN(CC(=O)O)CCN(CC(=O)O)CCN(CC(=O)O)CC2)C(=O)N2C[C@H](O)C[C@H]2C(=O)N[C@@H](Cc2ccc(O)c(Cl)c2)C(=O)NCC(=O)N[C@@H](CC(C)C)C(=O)N1)C(=O)N[C@@H](CCC(N)=O)C(=O)NCc1ccc(CNC(=S)Nc2ccc3c(c2)C(=O)OC32c3ccc(O)cc3Oc3cc(O)ccc32)cc1 [Compound 17, GdDOTA-cyclic-FBP-p-XD-FITC] ({DOTA}-Y[dE]C[Hyp][Tyr(3-Cl)]GLCYIQ-X1; disulfide 3-8)
Human fibrin
  Kd: 800 ± 300 nM
Fibrin gel [1]
  MR signal distribution between clotted fibrin and supernatant: binding to the fibrin
Fibrin gel [2]
  Fluorescence intensity distribution between fibrin clot and liquid: localizes in the fibrin clot

## CC(O)CN1CCN(CC(=O)[O-])CCN(CC(=O)[O-])CCN(CC(=O)[O-])CC1.[Gd+3] (stereo not drawn) [GdHP-DO3A, reference compound]
Fibrin gel [1]
  MR signal distribution between clotted fibrin and supernatant: distributed equally between the clotted fibrin and the supernatant

## O=C([O-])CN1CCN(CC(=O)O)CCN(CC(=O)[O-])CCN(CC(=O)O)CC1.[64Cu+2] [^64CuDOTA]
Fibrin gel [3]
  PET activity distribution between fibrin clot and liquid above the clot: distributed equally in the clot (bottom of tube B) and in the liquid above the clot
